Experimental data taken from publication PMC8129988 (Inorganic Chemistry Frontiers, 2021).
Counter-ions that a name gives are not always drawn.

Experiments:
Format in all cases: cell-based, human
[1] = test system: UM-UC-14 cells; assay: MTT vitality assay, 72 h; conditions: TFA up to 25 μM
Method: The sensitizing effect in this cell model was more pronounced for Co(acac)2LPonvs.Co(Meacac)2LPon reflecting the differences in the reduction potentials. Purification of the novel compounds was performed in the presence of 0.1% TFA, leading to the respective TFA salts.
As mentioned above, two stereoisomers of Co(acac)2LPon could be isolated. To clarify, whether there are differences in their anticancer activity, they were analyzed (in addition to the isomeric mixture) in UM-UC-14 cells by MTT assay. […] Accordingly, values for the isomeric mixture positioned intermediate. As expected, both stereoisomers and the isomeric mixture were distinctly activated by hypoxic conditions. The moderately higher activity of isomer 1 remained also under hypoxic conditions (Fig. S12A ^†). […]
Cells were seeded (3–7 × 10^4 cells per well) in 96-well plates and after 24 h recovery treated with increasing concentrations of compounds in triplicates. After 72 h drug exposure under normoxic or hypoxic cell culture conditions (0.1% O2) (ProOx Model C21 system, BioSpherix), the proportion of viable cells was determined by 3-(4,5-dimethylthiazol-2-yl)-2,5-diphenyltetrazolium bromide (MTT)-vitality assay (EZ4U, Biomedica, Vienna, Austria) or by luminescence assay based on adenosine triphosphate quantification (CellTiter-Glo, Promega, Madison, Wisconsin) following the manufacturer's recommendations. […]

[2] = test system: FGFR3-driven UM-UC-14 urothelial cancer cell model; assay: colony formation assay, 5 d; conditions: normoxic
Method: In order to investigate the impact of long-term oxygen restriction, clonogenic assays were performed in the FGFR3-dependent UM-UC-14 cell model (Fig. 9C).
UM-UC-14 cells were seeded at low densities of 3 × 10^3 cells per well in 24-well plates in 500 μL and after 24 h recovery treated with 100 μL of increasing concentrations of compounds in duplicates. Following drug exposure time of 5 days under normoxic or hypoxic (0.1% O2) culture conditions, cells were washed with phosphate-buffered saline (PBS), fixed with ice-cold methanol for 30 min at 4 °C and stained with crystal violet. Digital photographs were taken using a Nikon D3200 camera and processed with ImageJ software. For quantification, crystal violet was eluted using 2% sodium dodecyl sulfate (SDS) and color absorbance was measured at 560 nm at the Tecan infinite 200Pro (Zurich, Switzerland). Values are given in arbitrary units (a.u.) as mean ± SD normalized to untreated control.

[3] = test system: p-ERK1/2 and p-S6 in K-562 cells; assay: western blot of downstream signalling, 12 h; conditions: K-562, 12 h, western blot
Method: Fig. 10 Impact of the cobalt(III) complexes on the ERK1/2 and S6 under normoxic and hypoxic conditions. K-562 cells were treated with the compounds, after 12 h cell lysates were prepared and protein expression as well as phosphorylation levels of downstream pathways (p-ERK1/2 and p-S6) analyzed by western blotting. One representative experiment out of three is shown. The ratio of phosphorylated to total protein is given between the respective lanes.
K-562 cells were plated (5 × 10^5 cells per well) in 6-well plates and allowed to recover for 24 h. Subsequently, the cells were treated with the drugs in different concentrations. After 12 h cells were harvested, proteins were isolated, resolved by sodium dodecyl sulfate polyacrylamide gel electrophoresis (SDS/PAGE), and transferred onto a polyvinylidene difluoride membrane for western blotting. The following antibodies were used: ERK1/2 (p44/42) rabbit monoclonal antibody (mAb) (137F5, #4695), phospho-ERK1/2 rabbit mAb (Thr202/Tyr204) (20G11, #4376), phospho-S6 rabbit pAb (Ser240/244, #2215) (Cell Signaling Technology, Beverly, MA, USA), S6 mouse mAb (C-8. #sc-74459) (Santa Cruz Biotechnology, TX, USA) and β-actin mouse mAb (#A5441, Sigma). All primary antibodies were used in 1 : 1000 dilutions (in Tris-buffered saline containing 0.1% Tween20 (TBST) + 3% bovine serum albumin (BSA)). Secondary goat anti-mouse-IgG (Fc specific)-peroxidase antibody (#A0168, Sigma) and horseradish peroxidase(HRP)-labeled mouse anti-rabbit IgG (#sc-2357, Santa Cruz Biotechnology) were used at working dilutions of 1 : 10 000 (in TBST + 1% BSA).

| Structure (SMILES) | impact on cell viability [1] | inhibition of clonogenic cell growth [2] [%] | activity on ERK1/2 and S6 phosphorylation, normoxic vs hypoxic [3] |
| --- | --- | --- | --- |
| O=C(O)C(F)(F)F [TFA, trifluoroacetic acid] | no impact on cell viability |  |  |
| Cc1ccc(C(=O)Nc2ccc(CN3CCN(C)CC3)c(C(F)(F)F)c2)cc1C#Cc1cnc2cccnn12 [ponatinib, reference compound] |  | 95 | equally active under the two oxygen conditions |
